Test results from patent publication US12187679B2, “Hydroxylated psilocybin derivatives and methods of using” (Enveric Biosciences Canada Inc., priority 2020, dated 2025).

What was measured:
[1] = test system: CHO-K1/Galpha15 cells lacking 5-HT2A; test: Fluo-8 calcium release control assay in -5-HT2A cells; assay type: cell-based, Chinese Hamster; conditions: FIG. 8D panel A
From the text: (§1) Cell lines for pharmacology assays. CHO-K1/Galpha15 (GenScript, M00257) (−5-HT2A) and CHO-K1/5-HT2A (GenScript, M00250) (+5-HT2A) cells lines were used in both toxicology/growth inhibition (MTT) and calcium release assays. Briefly, CHO-K1/Galpha15 is a control cell line that constitutively expresses Galpha15 which is a promiscuous Gq protein. It is engineered as a host cell, allowing transfected receptor(s) to signal through the Gq signal transduction pathway and mobilize intracellular calcium from the endoplasmic reticulum (ER). These control cells lack any transgene encoding 5-HT2A receptors, thus preventing calcium mobilization in response to 5-HT2A activation. Conversely, CHO-K1/5-HT2A cells stably express 5-HT2A receptor in the CHO-K1 host background. […]
(§2) Increase in cytosolic calcium concentration by 5-HT2A activation and assessment of modulation. Changes in intracellular calcium concentration due to the treatment with assay compounds was measured using Fluo-8 dye (Abcam, #ab112129) according to the manufacturer's instructions. […] Fluorescence (ex 490 nm/em 525 nm) obtained after the addition of molecules was expressed relative to values obtained before addition of the molecules (relative Fluo-8 fluorescence=Fmax/F0, where Fmax=maximum fluorescence and F0=baseline fluorescence). Fluorescence intensities were measured using a Spectramax ID3 plate reader (www.moleculardevices.com). […]

5-HT2A receptor = 5-HT2A receptor (Homo sapiens, UniProt P28223); test: Fluo-8 calcium release assay, serotonin with and without compound (positive allosteric modulation), +5-HT2A cells; assay type: cell-based; conditions: serotonin 3 uM with compound 3 uM, FIG. 8C
From the text: as §1, §2

5-HT2A receptor, sequence (P28223 whole entry): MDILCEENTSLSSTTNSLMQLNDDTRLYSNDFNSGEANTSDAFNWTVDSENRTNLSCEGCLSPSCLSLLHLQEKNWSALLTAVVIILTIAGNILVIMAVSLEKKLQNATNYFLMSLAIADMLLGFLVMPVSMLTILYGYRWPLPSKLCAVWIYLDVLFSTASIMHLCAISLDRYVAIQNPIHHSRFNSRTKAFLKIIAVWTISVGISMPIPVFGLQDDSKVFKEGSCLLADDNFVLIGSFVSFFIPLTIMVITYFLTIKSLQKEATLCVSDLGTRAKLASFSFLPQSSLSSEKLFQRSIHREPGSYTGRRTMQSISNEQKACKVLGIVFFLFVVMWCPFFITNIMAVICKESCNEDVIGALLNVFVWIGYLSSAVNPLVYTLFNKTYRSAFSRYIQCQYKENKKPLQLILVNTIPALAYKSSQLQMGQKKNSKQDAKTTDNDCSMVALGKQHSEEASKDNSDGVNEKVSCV

| SMILES | calcium response (relative Fluo-8 fluorescence) [1] | time-dependent calcium flux (relative fluorescence, RFU) in response to serotonin with compound vs serotonin alone (5-HT2A receptor) |
| --- | --- | --- |
| NCCc1c[nH]c2ccc(O)cc12 [serotonin, 5-hydroxytryptamine] | did not exhibit a response |  |
| CC(=O)NCCc1c[nH]c2c(C)ccc(O)c12 [compound (IV), N-[2-(4-hydroxy-7-methyl-1H-indol-3-yl)ethyl]acetamide] |  | elevated flux |
